We go through 3 compounds from patent EP4759807A1, “PROTEOLYSIS TARGETING CHIMERA COMPOUND FOR DEGRADING IRAK4 AND USE THEREOF” (Shenzhen Zhongge Biological Technology Co., Ltd., priority 2023, dated 2025).

Structures are written as SMILES. Where two headings read alike, the source gives them in different places.

The target in one data set is T1, CYP1A2 (Homo sapiens, UniProt P05177).
T1 construct: 0.05 mg/mL liver microsomes (BioIVT, IHG) phosphate buffer solution; tissue BioIVT IHG; host or cells: human liver microsomes
T1 sequence (P05177 1-516): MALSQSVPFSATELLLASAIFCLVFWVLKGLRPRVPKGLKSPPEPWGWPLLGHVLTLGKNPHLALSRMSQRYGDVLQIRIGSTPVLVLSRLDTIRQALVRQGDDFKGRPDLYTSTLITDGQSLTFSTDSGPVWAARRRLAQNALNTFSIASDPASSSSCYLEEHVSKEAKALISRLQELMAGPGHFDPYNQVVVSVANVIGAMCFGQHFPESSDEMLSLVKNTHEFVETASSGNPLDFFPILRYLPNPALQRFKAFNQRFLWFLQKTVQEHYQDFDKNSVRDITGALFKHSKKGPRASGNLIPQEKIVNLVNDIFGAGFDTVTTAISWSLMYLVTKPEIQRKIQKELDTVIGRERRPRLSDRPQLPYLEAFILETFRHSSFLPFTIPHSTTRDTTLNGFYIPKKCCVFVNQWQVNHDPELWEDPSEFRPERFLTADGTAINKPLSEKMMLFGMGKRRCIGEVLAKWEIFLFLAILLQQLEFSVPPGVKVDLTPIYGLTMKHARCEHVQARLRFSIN
Briefly: Inhibitory effect on human liver microsome CYP450 enzyme. In kind it is in vitro ADME. The conditions noted are these: human liver microsomes, substrate Phenacetin. The procedure: (§1) In this experiment, the compound, liver microsomes and different CYP isoform enzyme substrates were incubated in a 37°C water bath, the amount of substrate metabolites generated was measured, and the inhibitory effect of the compound of the present disclosure on CYP enzyme was evaluated based on the IC50 value.
(§2) i. The compound was diluted with DMSO (Aladdin, catalog number: D103273-500ml) to concentrations of 0, 0.02, 0.06, 0.2, 0.6, 2 and 6 mM. The positive reference inhibitors for each CYP isoform and their concentrations are shown in Table 4 Table 4 Positive reference inhibitors for CYP isoform enzymes and their concentrations
(§3) ii. Phosphate buffer (sigma: V900050-500G) was used to formulate the substrate solution for each CYP isoform enzyme. Table 5 The substrate and the concentration thereof for CYP isoform enzyme
(§4) iii. Sample incubation. 1 µL of each concentration of the compound and positive reference inhibitor for CYP isoform enzyme were taken and placed into a 96-deep well plate (A-gen: P-1.0-RD-96-S), and 169 µL of 0.05 mg/mL liver microsomes (BioIVT, IHG) phosphate buffer solution (using 0.2 mg/mL liver microsomes for CYP2C19) was added. After uniform mixing, the plate was placed in a 37°C water bath (Shanghai Jinghong Experimental Equipment Co., Ltd., DK-500) with shaking for pre-incubation for 15 min. 10 µL of substrate (adding 1 µL of substrate for CYP3A4-Testosterone) and 20 µL of 10 mM NADPH phosphate buffer solution (MCE, HYF003/CS-4998) were added. After uniform mixing, the plate was incubated in a water bath with shaking for the following time: CYP1A2: 20 min, CYP2C9: 10 min, CYP2C19: 10 min, CYP2D6: 10 min, CYP3A4-Testosterone: 10 min, CYP3A4-Midazolam: 5 min. 400 µL of glacial acetonitrile/methanol (v/v, 1:1) containing an internal standard (500 nM tolbutamide, 5 nM terfenadine) was added to terminate the reaction. After centrifugation at 4000 rpm at 4°C for 40 min, the supernatant was taken and diluted with pure water according to the response of the metabolite of the substrate, and then UPLC-MS/MS (Sciex, Q-Trap 4500) was used for detection to obtain the peak area. The C18 chromatographic column was Kinetex 2.6u C18 100A (50 mm*3 mm).
(§5) The inhibitory effect of the compound on each P450 enzyme in human liver microsomes was calculated as the percentage of reduced metabolite formation compared with the non-inhibitory control (i.e. blank DMSO). The IC50 value of the compound for each P450 enzyme in human liver microsomes was calculated with the logarithm of the remaining activity and the inhibitor concentration using Graphpad Prism software. The calculation equation was as follows: Peak area ratio = compound peak area / internal standard peak area [formula] [formula]
(§6) In Graphpad Prism software, the IC50 value was calculated using the standard four-parameter curve fitting algorithm.
(In general: Liver microsomes are vesicles of endoplasmic reticulum, rich in cytochrome P450 enzymes.)

A further data set has as its target T2, CYP2D6 (Homo sapiens, UniProt P10635).
T2 construct: 0.05 mg/mL liver microsomes (BioIVT, IHG) phosphate buffer solution; tissue BioIVT IHG; host or cells: human liver microsomes
The description is as above. In kind it is in vitro ADME. The settings on record: human liver microsomes, substrate Dextromethorphan. The procedure: as §1, §2, §3, §4, §5, §6

A further data set addresses T3, CYP2C9 (Homo sapiens, UniProt P11712).
T3 construct: 0.05 mg/mL liver microsomes (BioIVT, IHG) phosphate buffer solution; tissue BioIVT IHG; host or cells: human liver microsomes
The data set is described as above. The data set is classed as in vitro ADME. The conditions noted are these: human liver microsomes, substrate Diclofenac Sodium. The procedure:
as §1, §2, §3, §4, §5, §6

In the next data set the target is T4, CYP3A4 (Homo sapiens, UniProt P08684).
T4 construct: 0.05 mg/mL liver microsomes (BioIVT, IHG) phosphate buffer solution; tissue BioIVT IHG; host or cells: human liver microsomes
T4 sequence (P08684 whole entry): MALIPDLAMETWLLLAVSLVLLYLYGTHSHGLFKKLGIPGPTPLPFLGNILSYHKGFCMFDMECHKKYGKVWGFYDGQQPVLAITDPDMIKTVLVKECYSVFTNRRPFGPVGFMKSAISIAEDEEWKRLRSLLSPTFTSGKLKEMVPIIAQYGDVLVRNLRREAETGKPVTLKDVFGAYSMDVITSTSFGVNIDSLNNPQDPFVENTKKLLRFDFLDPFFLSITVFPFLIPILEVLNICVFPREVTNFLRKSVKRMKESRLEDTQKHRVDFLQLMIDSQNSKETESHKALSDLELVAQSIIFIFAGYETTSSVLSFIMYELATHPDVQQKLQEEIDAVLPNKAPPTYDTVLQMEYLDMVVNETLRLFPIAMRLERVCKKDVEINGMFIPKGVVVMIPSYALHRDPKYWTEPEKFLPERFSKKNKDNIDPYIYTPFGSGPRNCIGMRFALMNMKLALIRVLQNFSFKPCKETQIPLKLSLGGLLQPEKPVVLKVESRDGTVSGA
Described as above. In kind it is in vitro ADME. The settings on record: liver microsomes. The procedure: as §1, §2, §3, §4, §5, §6

A further data set concerns the target T5, CYP2C19 (Homo sapiens, UniProt P33261).
T5 construct: (using 0.2 mg/mL liver microsomes for CYP2C19); tissue BioIVT IHG; host or cells: human liver microsomes
The description is as above. The data set is classed as in vitro ADME. The settings on record: human liver microsomes, substrate Mephenytoin. The method, then:
as §1, §2, §3, §4, §5, §6

The target of the next data set is T6, hERG ion channel (Homo sapiens, UniProt Q12809).
T6 construct: host or cells: HEK293
T6 sequence (Q12809 whole entry): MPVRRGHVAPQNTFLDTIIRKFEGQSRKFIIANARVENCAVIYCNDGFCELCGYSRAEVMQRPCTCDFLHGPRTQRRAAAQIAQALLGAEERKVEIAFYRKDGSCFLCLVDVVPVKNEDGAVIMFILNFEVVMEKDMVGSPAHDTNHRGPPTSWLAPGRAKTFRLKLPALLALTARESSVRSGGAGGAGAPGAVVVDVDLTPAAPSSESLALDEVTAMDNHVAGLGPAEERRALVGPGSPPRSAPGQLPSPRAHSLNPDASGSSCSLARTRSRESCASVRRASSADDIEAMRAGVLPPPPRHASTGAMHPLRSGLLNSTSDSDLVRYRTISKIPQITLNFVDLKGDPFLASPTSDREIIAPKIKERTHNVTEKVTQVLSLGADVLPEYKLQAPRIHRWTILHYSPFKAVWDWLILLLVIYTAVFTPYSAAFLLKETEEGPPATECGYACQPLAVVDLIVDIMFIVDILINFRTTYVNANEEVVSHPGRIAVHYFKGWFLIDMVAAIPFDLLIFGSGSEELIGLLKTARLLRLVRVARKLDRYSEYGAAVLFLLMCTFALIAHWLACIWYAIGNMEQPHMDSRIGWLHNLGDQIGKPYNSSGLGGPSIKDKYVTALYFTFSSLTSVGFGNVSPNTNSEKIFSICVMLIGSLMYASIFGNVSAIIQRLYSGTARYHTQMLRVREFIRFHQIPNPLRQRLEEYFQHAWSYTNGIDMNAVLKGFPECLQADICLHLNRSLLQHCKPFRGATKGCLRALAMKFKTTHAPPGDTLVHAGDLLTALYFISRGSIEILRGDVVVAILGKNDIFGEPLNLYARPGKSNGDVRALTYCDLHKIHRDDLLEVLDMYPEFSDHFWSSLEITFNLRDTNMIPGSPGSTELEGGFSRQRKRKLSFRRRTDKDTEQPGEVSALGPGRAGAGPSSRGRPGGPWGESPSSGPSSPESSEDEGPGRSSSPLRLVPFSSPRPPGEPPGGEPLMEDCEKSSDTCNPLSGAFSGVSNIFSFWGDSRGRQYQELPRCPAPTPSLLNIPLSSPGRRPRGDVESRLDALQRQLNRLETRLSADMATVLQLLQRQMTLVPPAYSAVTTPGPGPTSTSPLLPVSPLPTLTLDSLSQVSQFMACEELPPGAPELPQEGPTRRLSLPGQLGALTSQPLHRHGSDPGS
The experiment in a line: Inhibitory effect on hERG ion channels (manual patch clamp). The data set is classed as cell-based. The conditions noted are these: HEK293 cells stably expressing hERG channels, read-out: hERG (IC50, manupatch). The method, then: In this experiment, the inhibitory effect of the compound on the hERG ion channel was detected by a manual patch clamp electrophysiological method, and the cardiac safety was evaluated based on the single concentration inhibition rate or IC50 of the compound.
The cells used in this experiment were HEK293 cell lines transfected with hERG cDNA and stably expressing hERG channels (#60187, provided by BPS, P3-P23 generations were used for experimental research). The cells was cultured in a medium containing the following components: MEM medium, 10% (v/v) inactivated fetal bovine serum, 1 mM sodium pyruvate, 500 µg geneticin, 0.1 mM non-essential amino acids, 100 U penicillin-streptomycin. HEK293 hERG cells were grown in a culture flask containing the above culture solution and cultured in an incubator at 37°C and 5% CO2. […]
A manual patch clamp system (HEKA EPC-10 signal amplifier and digital conversion system, purchased from HEKA Electronics, Germany) was used to record whole-cell currents in electrophysiological experiments. […] After the hERG current recorded in the above steps reached stabilization under the continuous perfusion of extracellular solution in the recording chamber, different concentrations of the compound to be tested could be perfused until the inhibitory effect of the drug on the hERG current reached a stable state. […]
A general note: Block of hERG is tested as a sign of cardiac risk.

In data set [1] the target is T7, IRAK4 (Homo sapiens, UniProt Q9NWZ3).
T7 sequence (Q9NWZ3 1-460): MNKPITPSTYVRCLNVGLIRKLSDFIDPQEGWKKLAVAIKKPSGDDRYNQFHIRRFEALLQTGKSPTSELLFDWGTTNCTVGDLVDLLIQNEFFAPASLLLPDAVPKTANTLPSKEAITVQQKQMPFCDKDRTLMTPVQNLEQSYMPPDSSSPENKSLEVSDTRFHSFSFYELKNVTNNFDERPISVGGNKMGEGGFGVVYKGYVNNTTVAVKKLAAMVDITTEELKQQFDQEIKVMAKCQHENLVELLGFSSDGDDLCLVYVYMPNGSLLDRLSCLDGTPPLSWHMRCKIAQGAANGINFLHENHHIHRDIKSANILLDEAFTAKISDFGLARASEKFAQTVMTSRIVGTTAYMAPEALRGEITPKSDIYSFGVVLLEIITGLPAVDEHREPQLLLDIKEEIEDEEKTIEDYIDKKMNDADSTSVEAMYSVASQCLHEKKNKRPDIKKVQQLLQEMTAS
The experiment in a line: Hibit fluorescence detection of proteolysis (IRAK4-HiBiT in HEK293T cells). The conditions noted are these: for Dmax: HEK-293T; for DC50: IRAK4-HiBiT, HEK293T cells, 24 h. The data set is classed as cell-based. Also noted: host or cells: HEK293T (ATCC). Summed up:
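Degradation read-out: luminescence from lytic HiBiT detection (15 min, room temperature) after 24 h compound exposure (37 °C, 5% CO2) of HEK293T cells transiently expressing IRAK4 fused to a HiBiT tag. Data fitted to a bell-shaped four-parameter model giving two EC50 values.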

Data set [2] addresses T7, IRAK4. The experiment in a line: WB detection of proteolysis (Western Blot, THP-1 cells). The settings on record: Western Blot, THP-1 cells, 24 h; for DC50: read-out: DC50; for Dmax: read-out: Dmax. In kind it is cell-based. Summed up: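 IRAK4 level in RIPA lysates read by Western blot with Odyssey imaging; values from bell-shaped non-linear fit with two four-parameter sections (Plateau1, Plateau2, Dip, LogEC50_1/2, nH1/2).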
(In general: Immunoblotting shows a protein as a band on a membrane.)

T2 sequence (P10635 whole entry): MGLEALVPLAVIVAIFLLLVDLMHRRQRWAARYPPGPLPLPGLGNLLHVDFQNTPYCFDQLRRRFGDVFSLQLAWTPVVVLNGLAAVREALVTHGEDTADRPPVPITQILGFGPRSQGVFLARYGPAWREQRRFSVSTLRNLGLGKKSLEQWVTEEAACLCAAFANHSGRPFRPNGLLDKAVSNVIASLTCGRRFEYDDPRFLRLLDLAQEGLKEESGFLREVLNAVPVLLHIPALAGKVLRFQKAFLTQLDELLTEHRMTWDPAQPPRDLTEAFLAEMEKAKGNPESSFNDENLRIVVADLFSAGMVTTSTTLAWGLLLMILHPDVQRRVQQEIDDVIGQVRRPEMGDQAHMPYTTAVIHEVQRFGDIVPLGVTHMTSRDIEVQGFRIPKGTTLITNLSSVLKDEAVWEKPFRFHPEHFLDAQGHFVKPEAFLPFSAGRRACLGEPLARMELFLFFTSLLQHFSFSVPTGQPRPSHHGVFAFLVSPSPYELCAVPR
T5 sequence (P33261 whole entry): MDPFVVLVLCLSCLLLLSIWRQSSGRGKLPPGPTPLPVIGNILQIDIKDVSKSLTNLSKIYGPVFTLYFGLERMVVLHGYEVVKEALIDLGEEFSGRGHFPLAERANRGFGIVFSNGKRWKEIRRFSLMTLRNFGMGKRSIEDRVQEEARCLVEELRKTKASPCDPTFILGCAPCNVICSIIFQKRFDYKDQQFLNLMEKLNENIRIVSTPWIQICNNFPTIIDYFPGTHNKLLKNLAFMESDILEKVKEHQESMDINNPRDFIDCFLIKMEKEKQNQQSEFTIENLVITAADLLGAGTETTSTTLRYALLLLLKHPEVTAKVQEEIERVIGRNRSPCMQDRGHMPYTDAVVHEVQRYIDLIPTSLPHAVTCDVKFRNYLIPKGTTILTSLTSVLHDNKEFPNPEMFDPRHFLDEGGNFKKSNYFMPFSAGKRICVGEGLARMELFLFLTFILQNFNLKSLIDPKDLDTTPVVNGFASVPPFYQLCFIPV
T3 sequence (P11712 whole entry): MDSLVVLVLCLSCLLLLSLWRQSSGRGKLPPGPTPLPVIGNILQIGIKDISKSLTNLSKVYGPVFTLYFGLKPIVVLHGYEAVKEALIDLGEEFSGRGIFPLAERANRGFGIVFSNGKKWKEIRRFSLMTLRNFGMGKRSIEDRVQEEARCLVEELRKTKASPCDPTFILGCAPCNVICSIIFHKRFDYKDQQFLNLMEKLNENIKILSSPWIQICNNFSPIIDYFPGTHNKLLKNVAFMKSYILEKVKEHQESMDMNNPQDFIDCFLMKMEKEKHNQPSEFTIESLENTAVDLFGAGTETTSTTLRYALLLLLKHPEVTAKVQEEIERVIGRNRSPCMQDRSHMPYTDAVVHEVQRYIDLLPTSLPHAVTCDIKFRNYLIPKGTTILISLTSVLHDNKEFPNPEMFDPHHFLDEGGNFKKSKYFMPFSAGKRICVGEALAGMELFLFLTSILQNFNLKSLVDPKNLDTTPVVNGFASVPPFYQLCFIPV

For orientation: IC50 means the point on the concentration scale where inhibition reaches its midpoint. As for `Cn1c(=O)n(C2CCC(=O)NC2=O)c2cccc(C#CCOC3CCN(C[C@H]4CC[C@H](n5cc(NC(=O)c6cnn7ccc(N8C[C@H]9C[C@@H]8CO9)nc67)c(C(F)F)n5)CC4)CC3)c21` (stereo partly drawn) [KT474, reference compound], the IC50 against CYP1A2 is > 30 µM; against CYP2D6, > 30 µM; against CYP2C9 it was 9.61 µM; at CYP3A4 (substrate Midazolam, read-out: IC50 (µM) CYP3A4-M), 15.1 µM; at CYP3A4 (substrate Testosterone, read-out: IC50 (µM) CYP3A4-T), > 30 µM; on CYP2C19, 3.81 µM. Moreover, at hERG ion channel, the IC50 was 2.65 µM.
Regarding `Cn1c(=O)n(C2CCC(=O)NC2=O)c2cccc(N3CCC4(CCN(C[C@H]5CC[C@H](n6cc(-n7cc(-c8cnn9ccc(N%10CCC[C@H](N)C%10)nc89)nn7)c(C(F)F)n6)CC5)CC4)CC3)c21` (stereo partly drawn) [Example 120], the Dmax on IRAK4 [1] is > 80%; on IRAK4 [2], > 70%. The DC50 is 0.0005 to 0.001 µM at IRAK4 [1] and < 0.01 µM at IRAK4 [2].
In the same order, the values of `Cn1c(=O)n(C2CCC(=O)NC2=O)c2cccc(N3CCC4(CCN(C[C@H]5CC[C@H](n6cc(-n7cc(-c8cnn9ccc(NCC%10CC%10)nc89)nn7)c(C(F)F)n6)CC5)CC4)CC3)c21` (stereo partly drawn) [Example 108] are > 80%, > 70%, < 0.0005 µM and < 0.01 µM.
